The source of these data is US12202829B2, “Heterocyclic compound” (FIMECS, Inc., priority 2018, dated 2025).

For assay [1], the target named is T1, human XIAP_BIR3 domain purified protein (Homo sapiens, UniProt P98170).
T1 construct: purchased R & D
The experiment in a line: XIAP binding inhibitory activity, HTRF method with b-Smac ligand. To be noted: for pIC50: second symbol of the cell, read-out: XIAP binding 50% inhibitory concentration (IC50 value); for inhibition at 3 µM: test compound 3 μM, first symbol of the cell, read-out: XIAP binding inhibition rate when the concentration of the test compound is 3 μM. The method in brief: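 HTRF competition: human XIAP BIR3 and C-terminally biotinylated Smac peptide AVPIAQK, each diluted to 90 nM before addition, in HEPES pH 7.5 buffer with NaCl, BSA, Triton X-100. Eu-cryptate anti-His/streptavidin-XL665 detection after ≥4 h at room temperature; inhibition % from 665/615 ratio versus no-compound control.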

In assay [2] the target is T2, BCR-ABL (Homo sapiens, UniProt P00519).
T2 construct: BCR N-terminal part (natural fusion partner, P11274); endogenous in cells; host or cells: K562 (ECACC); the other entry of the earlier key: BCR (P11274, Breakpoint cluster region protein)
T2 sequence (P00519 with tags, fused parts or gaps): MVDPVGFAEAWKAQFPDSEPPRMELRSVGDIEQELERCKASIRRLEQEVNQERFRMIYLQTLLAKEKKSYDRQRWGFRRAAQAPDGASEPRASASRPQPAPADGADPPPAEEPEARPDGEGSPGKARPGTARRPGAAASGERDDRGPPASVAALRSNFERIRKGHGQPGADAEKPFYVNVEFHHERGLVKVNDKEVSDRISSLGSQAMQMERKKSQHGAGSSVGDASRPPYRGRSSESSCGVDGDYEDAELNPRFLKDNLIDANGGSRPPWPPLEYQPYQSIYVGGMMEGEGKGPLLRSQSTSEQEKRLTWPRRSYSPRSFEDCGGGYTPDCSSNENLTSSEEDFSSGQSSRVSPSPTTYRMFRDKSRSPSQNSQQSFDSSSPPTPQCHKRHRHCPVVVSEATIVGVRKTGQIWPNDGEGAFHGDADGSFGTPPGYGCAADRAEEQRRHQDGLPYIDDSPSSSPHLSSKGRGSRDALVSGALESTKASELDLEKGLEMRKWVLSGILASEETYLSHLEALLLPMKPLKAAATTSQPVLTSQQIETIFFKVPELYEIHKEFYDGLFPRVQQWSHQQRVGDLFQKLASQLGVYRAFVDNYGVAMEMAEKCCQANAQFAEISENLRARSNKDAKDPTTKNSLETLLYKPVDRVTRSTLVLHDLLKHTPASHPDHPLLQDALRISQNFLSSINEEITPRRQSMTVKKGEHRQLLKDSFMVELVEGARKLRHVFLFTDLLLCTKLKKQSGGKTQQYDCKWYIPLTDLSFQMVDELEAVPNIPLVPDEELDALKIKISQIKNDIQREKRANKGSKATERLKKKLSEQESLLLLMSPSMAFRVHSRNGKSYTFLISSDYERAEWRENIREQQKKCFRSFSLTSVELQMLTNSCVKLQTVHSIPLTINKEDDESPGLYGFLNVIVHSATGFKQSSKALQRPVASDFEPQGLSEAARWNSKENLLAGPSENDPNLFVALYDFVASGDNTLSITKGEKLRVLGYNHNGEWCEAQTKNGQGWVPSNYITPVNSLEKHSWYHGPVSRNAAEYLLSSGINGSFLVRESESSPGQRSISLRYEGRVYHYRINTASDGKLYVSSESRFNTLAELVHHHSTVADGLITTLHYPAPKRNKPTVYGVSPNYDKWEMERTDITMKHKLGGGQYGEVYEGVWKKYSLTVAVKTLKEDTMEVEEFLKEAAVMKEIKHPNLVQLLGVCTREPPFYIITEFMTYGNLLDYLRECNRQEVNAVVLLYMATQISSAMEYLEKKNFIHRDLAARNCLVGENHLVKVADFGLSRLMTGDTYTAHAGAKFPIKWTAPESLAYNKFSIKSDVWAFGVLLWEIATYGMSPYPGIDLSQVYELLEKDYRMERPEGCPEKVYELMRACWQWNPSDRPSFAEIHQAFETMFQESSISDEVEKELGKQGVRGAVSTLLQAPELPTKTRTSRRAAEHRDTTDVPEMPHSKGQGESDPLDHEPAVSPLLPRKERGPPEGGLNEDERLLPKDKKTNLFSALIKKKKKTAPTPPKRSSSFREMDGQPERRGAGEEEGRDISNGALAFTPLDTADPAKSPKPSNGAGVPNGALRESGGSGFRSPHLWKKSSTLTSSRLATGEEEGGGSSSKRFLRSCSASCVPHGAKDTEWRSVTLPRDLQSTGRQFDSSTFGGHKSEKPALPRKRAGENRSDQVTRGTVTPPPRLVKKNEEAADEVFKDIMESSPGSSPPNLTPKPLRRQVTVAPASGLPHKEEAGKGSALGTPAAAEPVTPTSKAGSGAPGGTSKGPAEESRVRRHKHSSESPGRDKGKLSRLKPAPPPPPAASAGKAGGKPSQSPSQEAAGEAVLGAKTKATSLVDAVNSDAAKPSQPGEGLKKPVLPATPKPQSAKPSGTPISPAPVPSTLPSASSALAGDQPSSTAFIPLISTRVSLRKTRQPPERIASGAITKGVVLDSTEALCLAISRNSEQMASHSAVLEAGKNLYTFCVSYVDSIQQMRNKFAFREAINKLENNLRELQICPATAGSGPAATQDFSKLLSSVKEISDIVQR
Kind of assay: In vitro degradation activity of BCR-ABL in K562 cells, western blotting. It is filed as cell-based. To be noted: test compound 30 μM, 24 hours, relative to DMSO control set at 100. As for the experimental part:
In vitro degradation activities of BCR-ABL of the example compounds were evaluated by the following method. K562 cells were purchased from ECACC and cultured in RPMI-1640 supplemented with 10% FBS and 1% penicillin/streptomycin. K562 cells were seeded at a density of 1×10^6 cells/well in 24-well plate and treated with DMSO control or Example 80 and 81 (1, 3, 10, 30 μM), and then incubated for 24 hours. The cells were collected and lysed on ice for 30 minutes in lysis buffer (0.5% Triton X-100, 0.01 M Tris-HCl (pH 8.0), 0.15 M NaCl) containing a protease inhibitor cocktail (Sigma-Aldrich). The lysates were vortexed for 2 minutes and centrifuged for 15 minutes at 15 krpm at 4° C. Protein concentrations were determined by the BCA assay (Thermo Fisher). Proteins were separated with Nu-PAGE (Thermo Fisher) and analyzed by western blotting (standard protocol) using antibodies of anti-BCR (Cell Signaling #3902), and R-actin (Sigma #A2066). Bands (luminescent intensities) were quantified using LAS-4000 luminescent image analyzer (Fuji). The values of BCR-ABL were corrected by the internal control value of R-actin and analyzed relative to DMSO control set at 100. The remaining protein rate (%) are described as A≤25%, 25%<B≤50%, 50%<C≤75%, D>75% when the concentration of the test compound is 30 μM.

Assay [3] concerns the target T3, XIAP (Homo sapiens, UniProt P98170).
T3 construct: endogenous in cells; host or cells: THP1 (ATCC)
The experiment in a line: In vitro degradation activity of XIAP in THP1 cells, western blotting. It is filed as cell-based. Particulars: test compound 10 μM, 24 hours, relative to DMSO control set at 100. As for the experimental part:
In vitro degradation activities of XIAP of the example compounds were evaluated by the following method. THP1 cells were purchased from ATCC and cultured in RPMI-1640 supplemented with 10% FBS and 1% penicillin/streptomycin. THP1 cells were seeded at a density of 1×10^6 cells/well in 24-well plate and treated with DMSO control or Example 86 and 87 (0.001, 0.01, 0.1, 1, 10 μM), and then incubated for 24 hours. The cells were collected and lysed on ice for 30 minutes in lysis buffer (0.5% Triton X-100, 0.01 M Tris-HCl (pH 8.0), 0.15 M NaCl) containing a protease inhibitor cocktail (Sigma-Aldrich). The lysates were sonicated for 30 sec ON/30 sec OFF for ten cycles and centrifuged for 15 minutes at 15 krpm at 4° C. Protein concentrations were determined by the BCA assay (Thermo Fisher). Proteins were separated with Nu-PAGE (Thermo Fisher) and analyzed by western blotting (standard protocol) using antibodies of anti-XIAP (Cell Signaling #14334), and β-actin (Sigma #A2066). Bands (luminescent intensities) were quantified using LAS-4000 luminescent image analyzer (Fuji). The values of XIAP were corrected by the internal control value of β-actin and analyzed relative to DMSO control set at 100. The remaining protein rate (%) are described as A≤25%, 25%<B≤50%, 50%<C≤75%, D>75% when the concentration of the test compound is 10 μM.

pIC50: −log10 of the molar value. Where a name gives a salt, the structure may show the parent alone. Some results are limits rather than exact numbers.

T1 sequence (P98170 252-356 limits assumed): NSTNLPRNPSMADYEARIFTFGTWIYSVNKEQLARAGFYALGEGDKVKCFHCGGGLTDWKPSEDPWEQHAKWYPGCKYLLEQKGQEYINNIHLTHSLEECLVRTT
T3 sequence (P98170 whole entry): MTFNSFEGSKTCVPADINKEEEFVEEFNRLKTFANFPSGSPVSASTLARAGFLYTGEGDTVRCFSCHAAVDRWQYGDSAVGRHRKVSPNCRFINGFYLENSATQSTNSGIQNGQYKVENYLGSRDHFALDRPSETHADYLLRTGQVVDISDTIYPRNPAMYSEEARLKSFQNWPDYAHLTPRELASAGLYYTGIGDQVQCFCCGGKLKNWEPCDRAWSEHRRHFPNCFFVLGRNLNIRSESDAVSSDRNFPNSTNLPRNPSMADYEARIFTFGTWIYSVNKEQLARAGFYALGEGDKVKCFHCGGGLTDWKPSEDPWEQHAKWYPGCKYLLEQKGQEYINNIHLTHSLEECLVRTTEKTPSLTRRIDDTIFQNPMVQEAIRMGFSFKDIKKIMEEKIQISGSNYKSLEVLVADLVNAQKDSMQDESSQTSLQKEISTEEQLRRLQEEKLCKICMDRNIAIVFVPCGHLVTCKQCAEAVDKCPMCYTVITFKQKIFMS

Regarding `CN[C@@H](C)C(=O)N[C@H](C(=O)N1CCN(C(=O)c2c(C(=O)NCCOCCN3CCN(c4cc(Nc5ncc(C(=O)Nc6c(C)cccc6Cl)s5)nc(C)n4)CC3)c3cc(F)c(F)cc3n2C)CC1)C1CCCCC1` [Example 80, N-(2-Chloro-6-methylphenyl)-2-((6-(4-(2-(2-(2-(4-((S)-2-cyclohexyl-2-((S)-2-(methylamino)propanamide)acetyl)piperazine-1-carbonyl)-5,6-difluoro-1-methyl-1H-indole-3-carboxamido)ethoxy)ethyl)piperazin-1-yl)-2-methylpyrimidin-4-yl)amino)thiazole-5-carboxamide], the pIC50 in assay [1] is 5.52 to 6.52. The “remaining protein rate (%) BCR-ABL” value in assay [2] is given as “C (50%<C≤75%)”. `CN[C@@H](C)C(=O)N[C@H](C(=O)N1CCN(C(=O)c2c(C(=O)NCCOCCOCCNC(=O)c3c(C(=O)N4CCN(C(=O)[C@@H](NC(=O)[C@H](C)NC)C5CCCCC5)CC4)n(C)c4ccc(F)cc34)c3cc(F)ccc3n2C)CC1)C1CCCCC1` [Example 86, N,N′-((Ethan-1,2-diylbis(oxy))bis(ethan-2,1-diyl))bis(2-(4-((S)-2-cyclohexyl-2-((S)-2-(methylamino)propanamido)acetyl)piperazine-1-carbonyl)-5-fluoro-1-methyl-1H-indole-3-carboxamide) bistrifluoroacetate]: in assay [1], the pIC50 was over 6.52 and the inhibition at 3 µM was over 75%. The “remaining protein rate (%) XIAP” value in assay [3] was “C (50%<C≤75%)”. For `CN[C@@H](C)C(=O)N[C@H](C(=O)N1CCN(C(=O)c2c(C(=O)NCCOCCOCCN3CCN(c4cc(Nc5ncc(C(=O)Nc6c(C)cccc6Cl)s5)nc(C)n4)CC3)c3cc(F)c(F)cc3n2C)CC1)C1CCCCC1` [Example 81, N-(2-Chloro-6-methylphenyl)-2-((6-(4-(2-(2-(2-(2-(4-((S)-2-cyclohexyl-2-((S)-2-(methylamino)propanamido)acetyl)piperazine-1-carbonyl)-5,6-difluoro-1-methyl-1H-indole-3-carboxamido)ethoxy)ethoxy)ethyl)piperazin-1-yl)-2-methylpyrimidin-4-yl)amino)thiazole-5-carboxamide trifluoroacetate], in assay [1], the pIC50 is 5.52 to 6.52. The “remaining protein rate (%) BCR-ABL” value in assay [2] is recorded as “D (D>75%)”. With `CN[C@@H](C)C(=O)N[C@H](C(=O)N1CCN(C(=O)c2cc3ccc(F)cc3n2CCOC)CC1)C1CCCCC1` [Example 53, (S)—N—((S)-1-cyclohexyl-2-(4-(6-fluoro-1-(2-methoxyethyl)-1H-indole-2-carbonyl)piperazin-1-yl)-2-oxoethyl)-2-(methylamino)propanamide], the pIC50 in assay [1] is 4.52 to 5.52. For the compound `CN[C@@H](C)C(=O)N[C@H](C(=O)N1CCN(C(=O)c2cc3ccc(F)cc3n2C)CC1)C1CCCCC1` [Example 14, (S)-N-((S)-1-cyclohexyl-2-(4-(6-fluoro-1-methyl-1H-indole-2-carbonyl)piperazin-1-yl)-2-oxoethyl)-2-(methylamino)propanamide], the inhibition at 3 µM in assay [1] fell in the range of 50 to 75%.

Regarding `CN[C@@H](C)C(=O)N[C@H](C(=O)N1CCN(C(=O)c2ccn3nccc3c2C)CC1)C1CCCCC1` [Example 4, (S)-N-((S)-1-cyclohexyl-2-(4-(4-methylpyrazolo[1,5-a]pyridine-5-carbonyl)piperazin-1-yl)-2-oxoethyl)-2-(methylamino)propanamide], in assay [1], the inhibition at 3 µM lay in the range of 50 to 75%. The same measure, in the same setting: as for `CN[C@@H](C)C(=O)N[C@H](C(=O)N1CCN(C(=O)c2cc3cc(F)c(F)cc3n2C)CC1)C1CCCCC1` [Example 41, (S)—N—((S)-1-Cyclohexyl-2-(4-(5,6-difluoro-1-methyl-1H-indole-2-carbonyl)piperazin-1-yl)-2-oxoethyl)-2-(methylamino)propanamide], the figure is over 75%; as for `CN[C@@H](C)C(=O)N[C@H](C(=O)N1CCN(C(=O)c2c(C(=O)NCC(=O)OC)c3ccc(OC)cc3n2C)CC1)C1CCCCC1` [Example 27, Methyl (2-(4-((S)-2-cyclohexyl-2-((S)-2-(methylamino)propanamido)acetyl)piperazine-1-carbonyl)-6-methoxy-1-methyl-1H-indole-3-carbonyl)glycinate Hydrochloride], over 75%. Same read-out and setting: as for `CN[C@@H](C)C(=O)N[C@H](C(=O)N1CCN(C(=O)c2cc3ccc(OC)cc3n2C)C[C@@H]1C)C1CCCCC1` [Example 32, (S)—N—((S)-1-Cyclohexyl-2-((S)-4-(6-methoxy-1-methyl-1H-indole-2-carbonyl)-2-methylpiperazin-1-yl)-2-oxoethyl)-2-(methylamino)propanamide Hydrochloride], the figure is 50 to 75%; as for `COc1ccc2cc(C(=O)N3CCN(C(=O)CN4C[C@@H](C)NC[C@@H]4CN(C)CCOCCO)CC3)n(C)c2c1` [Example 40, 2-((2R,5R)-2-(((2-(2-Hydroxyethoxy)ethyl) (methyl)amino)methyl)-5-methylpiperazin-1-yl)-1-(4-(6-methoxy-1-methyl-1H-indole-2-carbonyl)piperazin-1-yl)ethan-1-one Hydrochloride], over 75%; as for `CN[C@@H](C)C(=O)N[C@H](C(=O)N1CCN(C(=O)c2c(C(=O)NCCOCCOCCOCCNC(=O)C[C@@H]3N=C(c4ccc(Cl)cc4)c4c(sc(C)c4C)-n4c(C)nnc43)c3cc(F)c(F)cc3n2C)CC1)C1CCCCC1` [Example 74, N-(1-((S)-4-(4-chlorophenyl)-2,3,9-trimethyl-6H-thieno[3,2-f][1,2,4]triazolo[4,3-a][1,4]diazepin-6-yl)-2-oxo-6,9,12-trioxa-3-azatetradecan-14-yl)-2-(4-((S)-2-cyclohexyl-2-((S)-2-(methylamino)propanamido)acetyl)piperazine-1-carbonyl)-5,6-difluoro-1-methyl-1H-indole-3-carboxamide], 25 to 50%. On the same count and under the same terms, as for `CN[C@@H](C)C(=O)N[C@H](C(=O)N1CCN(C(=O)c2ccn3nccc3c2)CC1)C1CCCCC1` [Example 2, (S)-N-((S)-1-cyclohexyl-2-oxo-2-(4-(pyrazolo[1,5-a]pyridine-5-carbonyl)piperazin-1-yl)ethyl)-2-(methylamino)propanamide], the figure is 25 to 50%; as for `COc1ccc2cc(C(=O)N3CCN(C(=O)CN4C[C@@H](C)NC[C@@H]4CO)CC3)n(C)c2c1` [Example 39, 2-((2R,5R)-2-(Hydroxymethyl)-5-methylpiperazin-1-yl)-1-(4-(6-methoxy-1-methyl-1H-indole-2-carbonyl)piperazin-1-yl)ethan-1-one hydrochloride], 50 to 75%.

`Cc1nc(Nc2ncc(C(=O)Nc3c(C)cccc3Cl)s2)cc(N2CCN(CCOCCOCCOC[C@H]3CN[C@H](C)CN3CC(=O)N3CCN(C(=O)c4cc5cc(F)c(F)cc5n4C)C[C@H]3C)CC2)n1` [Example 83, N-(2-chloro-6-methylphenyl)-2-((6-(4-(2-(2-(2-(((2R,5R)-1-(2-((R)-4-(5,6-difluoro-1-methyl-1H-indole-2-carbonyl)-2-methylpiperazin-1-yl)-2-oxoethyl)-5-methylpiperazin-2-yl)methoxy)ethoxy)ethoxy)ethyl)piperazin-1-yl)-2-methylpyrimidin-4-yl)amino)thiazole-5-carboxamide]: in assay [1], the pIC50 was 4.52 to 5.52.
